The text below walks through data of article PMC12029925, “Kinetics of Manganese Peroxidase Using Simple Phenolic Compounds as Substrates” (Metabolites, 2025).

In this assay the test system is T1, MnP (manganese peroxidase).
T1 construct: gene MNP1; commercial recombinant enzyme (Sigma Aldrich), expressed in corn
The assay can be described thus: UV/Vis quinone formation at […] nm, Michaelis-Menten fit. The class given is biochemical, Phanerochaete chrysosporium. Particulars: with 1 mM Mn(II); 0.05% H2O2; 0.1 M sodium acetate pH 4.5; 25 °C; 50 µM MnP; 8 min; apparent, oxidation may be mediated by Mn(III).

On to `Oc1cccc(O)c1O` [pyrogallol], for which the Km – broadly, the substrate concentration at which the rate is half of its maximum – came out at 280 µM.

With `O=C(O)c1cc(O)c(O)c(O)c1` [gallic acid], the Km was found to be 660 µM.
